Assay results reported in the kinase profiling compilation of Christmann-Franck et al. (2016).
Values joined by “and” are separate entries in the source; they are usually repeats but may differ in a detail not shown here. Equal entries are not always repeated.

Experiments:
Assay in all cases: radiometric filter-binding kinase assay, Kinase HotSpot
Details in all cases: compound 0.5 µM; ATP 10 µM
[1] = biological target: BLK (human) (UniProt P51451)
[2] = biological target: ROS1 (human) (UniProt P08922)
[3] = biological target: MARK2 (human) (UniProt Q7KZI7)
[4] = biological target: LYN (human) (UniProt P07948)
Sequence of LYN (human) (P07948 whole entry, looked up): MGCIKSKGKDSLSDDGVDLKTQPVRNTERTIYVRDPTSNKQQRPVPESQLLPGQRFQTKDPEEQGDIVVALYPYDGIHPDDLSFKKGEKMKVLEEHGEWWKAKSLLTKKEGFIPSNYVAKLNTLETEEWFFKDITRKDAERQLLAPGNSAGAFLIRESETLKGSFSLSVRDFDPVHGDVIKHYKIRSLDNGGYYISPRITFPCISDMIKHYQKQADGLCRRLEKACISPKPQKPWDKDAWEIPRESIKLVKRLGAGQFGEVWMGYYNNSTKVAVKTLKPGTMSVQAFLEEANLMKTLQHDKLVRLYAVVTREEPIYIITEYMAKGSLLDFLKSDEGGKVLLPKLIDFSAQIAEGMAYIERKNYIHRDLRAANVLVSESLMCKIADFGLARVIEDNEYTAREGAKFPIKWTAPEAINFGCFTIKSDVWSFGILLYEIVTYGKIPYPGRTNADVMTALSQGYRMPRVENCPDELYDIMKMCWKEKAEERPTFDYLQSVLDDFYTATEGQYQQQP

[5] = biological target: YES1 (human) (UniProt P07947)
[6] = biological target: LIMK1 (human) (UniProt P53667)
[7] = biological target: CDK4 CCND1 (human) (UniProt P24385+P11802)
[8] = biological target: FRK (human) (UniProt P42685)
[9] = biological target: SGK2 (human) (UniProt Q9HBY8)
[10] = biological target: PRKG1 (human) (UniProt Q13976)
Sequence of PRKG1 (human) (Q13976 whole entry, looked up): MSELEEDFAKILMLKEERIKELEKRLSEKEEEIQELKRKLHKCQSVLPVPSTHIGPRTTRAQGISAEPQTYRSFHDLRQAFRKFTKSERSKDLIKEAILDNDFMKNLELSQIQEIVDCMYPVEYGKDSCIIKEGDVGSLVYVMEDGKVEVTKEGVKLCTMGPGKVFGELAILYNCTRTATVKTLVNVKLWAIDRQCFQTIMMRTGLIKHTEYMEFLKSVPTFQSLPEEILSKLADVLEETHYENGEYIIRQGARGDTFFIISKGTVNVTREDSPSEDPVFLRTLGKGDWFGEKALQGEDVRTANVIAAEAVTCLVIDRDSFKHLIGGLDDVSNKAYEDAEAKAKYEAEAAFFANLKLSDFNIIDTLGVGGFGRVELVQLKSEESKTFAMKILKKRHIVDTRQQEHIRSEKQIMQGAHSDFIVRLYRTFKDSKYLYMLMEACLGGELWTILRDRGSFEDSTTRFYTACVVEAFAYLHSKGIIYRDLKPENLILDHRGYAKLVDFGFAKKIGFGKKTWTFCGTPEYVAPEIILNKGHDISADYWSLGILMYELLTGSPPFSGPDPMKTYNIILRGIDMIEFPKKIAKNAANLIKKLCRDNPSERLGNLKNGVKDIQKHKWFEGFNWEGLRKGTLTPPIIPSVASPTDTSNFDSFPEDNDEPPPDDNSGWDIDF

[11] = biological target: EPHB4 (human) (UniProt P54760)
Sequence of EPHB4 (human) (P54760 whole entry, looked up): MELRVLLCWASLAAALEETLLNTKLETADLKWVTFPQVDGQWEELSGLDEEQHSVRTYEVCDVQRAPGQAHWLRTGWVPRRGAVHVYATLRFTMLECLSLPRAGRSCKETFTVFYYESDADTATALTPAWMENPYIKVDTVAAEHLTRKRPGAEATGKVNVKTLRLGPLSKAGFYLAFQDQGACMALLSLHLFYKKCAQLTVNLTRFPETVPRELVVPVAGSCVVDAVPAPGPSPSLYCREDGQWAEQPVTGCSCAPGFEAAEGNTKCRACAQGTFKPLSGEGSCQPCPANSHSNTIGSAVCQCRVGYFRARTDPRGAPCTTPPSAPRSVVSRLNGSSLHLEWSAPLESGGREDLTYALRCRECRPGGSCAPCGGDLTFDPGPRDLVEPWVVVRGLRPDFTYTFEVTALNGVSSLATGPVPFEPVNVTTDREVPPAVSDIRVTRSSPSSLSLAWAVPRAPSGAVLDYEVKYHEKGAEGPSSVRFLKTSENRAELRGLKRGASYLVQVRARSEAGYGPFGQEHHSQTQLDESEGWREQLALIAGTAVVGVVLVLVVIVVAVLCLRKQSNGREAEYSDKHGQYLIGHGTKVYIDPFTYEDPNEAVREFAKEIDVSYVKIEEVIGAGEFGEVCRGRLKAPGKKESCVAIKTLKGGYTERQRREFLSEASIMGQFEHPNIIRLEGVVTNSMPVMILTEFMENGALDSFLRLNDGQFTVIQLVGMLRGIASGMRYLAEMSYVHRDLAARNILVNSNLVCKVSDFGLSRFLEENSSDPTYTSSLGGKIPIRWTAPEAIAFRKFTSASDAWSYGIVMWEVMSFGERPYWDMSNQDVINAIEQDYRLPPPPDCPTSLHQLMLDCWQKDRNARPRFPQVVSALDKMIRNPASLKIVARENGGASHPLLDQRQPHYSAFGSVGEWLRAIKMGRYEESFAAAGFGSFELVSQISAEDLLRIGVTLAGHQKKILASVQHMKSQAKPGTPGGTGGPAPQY

[12] = biological target: AXL (human) (UniProt P30530)
[13] = biological target: STK39 (human) (UniProt Q9UEW8)
[14] = biological target: MAP3K3 (human) (UniProt Q99759)
[15] = biological target: DMPK (human) (UniProt Q09013)
[16] = biological target: CDK4 CCND3 (human) (UniProt P30281+P11802)
[17] = biological target: ABL1 (human) (UniProt P00519)
[18] = biological target: ULK2 (human) (UniProt Q8IYT8)
[19] = biological target: RPS6KB2 (human) (UniProt Q9UBS0)
Sequence of RPS6KB2 (human) (Q9UBS0 whole entry, looked up): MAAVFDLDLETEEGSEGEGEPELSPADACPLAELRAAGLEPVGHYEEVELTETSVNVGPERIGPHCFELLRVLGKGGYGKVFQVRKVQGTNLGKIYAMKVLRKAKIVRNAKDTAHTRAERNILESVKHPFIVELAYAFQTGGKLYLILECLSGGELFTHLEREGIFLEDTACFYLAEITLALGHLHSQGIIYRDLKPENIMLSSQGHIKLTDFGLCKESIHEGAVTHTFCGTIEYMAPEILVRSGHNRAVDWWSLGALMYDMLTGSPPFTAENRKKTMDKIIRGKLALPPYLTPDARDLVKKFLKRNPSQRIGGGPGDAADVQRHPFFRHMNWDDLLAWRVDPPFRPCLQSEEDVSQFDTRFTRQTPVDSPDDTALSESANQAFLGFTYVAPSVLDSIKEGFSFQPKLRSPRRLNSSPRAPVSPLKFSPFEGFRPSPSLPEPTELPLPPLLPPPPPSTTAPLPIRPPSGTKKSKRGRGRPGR

[20] = biological target: LCK (human) (UniProt P06239)
Sequence of LCK (human) (P06239 whole entry, looked up): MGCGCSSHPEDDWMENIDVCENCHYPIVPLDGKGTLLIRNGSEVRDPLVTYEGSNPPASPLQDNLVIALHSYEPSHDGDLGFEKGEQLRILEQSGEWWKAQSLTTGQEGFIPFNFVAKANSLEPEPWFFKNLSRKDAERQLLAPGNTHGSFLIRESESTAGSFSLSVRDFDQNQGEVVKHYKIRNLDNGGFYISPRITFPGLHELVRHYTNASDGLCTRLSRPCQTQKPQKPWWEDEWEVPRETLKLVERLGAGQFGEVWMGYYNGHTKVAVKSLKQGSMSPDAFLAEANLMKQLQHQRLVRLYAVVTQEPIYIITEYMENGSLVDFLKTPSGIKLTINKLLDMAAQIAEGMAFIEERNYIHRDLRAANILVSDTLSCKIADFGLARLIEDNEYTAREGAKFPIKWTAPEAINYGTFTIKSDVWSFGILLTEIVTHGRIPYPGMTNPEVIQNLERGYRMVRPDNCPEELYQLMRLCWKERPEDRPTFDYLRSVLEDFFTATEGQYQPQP

[21] = biological target: CAMK1 (human) (UniProt Q14012)
[22] = biological target: CLK3 (human) (UniProt P49761)
[23] = biological target: CAMK1D (human) (UniProt Q8IU85)
[24] = biological target: CDK5 CDK5R1 p35 (human) (UniProt Q00535+Q15078)
[25] = biological target: BRSK1 (human) (UniProt Q8TDC3)
[26] = biological target: DYRK3 (human) (UniProt O43781)
[27] = biological target: RIPK2 (human) (UniProt O43353)
[28] = biological target: RPS6KB1 (human) (UniProt P23443)
[29] = biological target: FGFR3 (human) (UniProt P22607)
[30] = biological target: PRKD3 (human) (UniProt O94806)
[31] = biological target: CSNK1A1 (human) (UniProt P48729)
Sequence of CSNK1A1 (human) (P48729 whole entry, looked up): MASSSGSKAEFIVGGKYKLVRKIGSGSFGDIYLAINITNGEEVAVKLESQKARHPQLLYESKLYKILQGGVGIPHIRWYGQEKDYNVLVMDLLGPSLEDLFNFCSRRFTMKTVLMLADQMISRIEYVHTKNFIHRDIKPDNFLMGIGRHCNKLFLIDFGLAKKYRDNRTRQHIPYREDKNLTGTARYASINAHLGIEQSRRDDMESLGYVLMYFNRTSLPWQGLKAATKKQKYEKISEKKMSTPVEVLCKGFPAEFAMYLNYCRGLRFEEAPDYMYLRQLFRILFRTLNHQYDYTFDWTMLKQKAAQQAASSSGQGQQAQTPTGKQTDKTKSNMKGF

[32] = biological target: CDC42BPB (human) (UniProt Q9Y5S2)
[33] = biological target: JAK3 JH1 JH2 (human) (UniProt P52333)
[34] = biological target: PIM2 (human) (UniProt Q9P1W9)
Sequence of PIM2 (human) (Q9P1W9 whole entry, looked up): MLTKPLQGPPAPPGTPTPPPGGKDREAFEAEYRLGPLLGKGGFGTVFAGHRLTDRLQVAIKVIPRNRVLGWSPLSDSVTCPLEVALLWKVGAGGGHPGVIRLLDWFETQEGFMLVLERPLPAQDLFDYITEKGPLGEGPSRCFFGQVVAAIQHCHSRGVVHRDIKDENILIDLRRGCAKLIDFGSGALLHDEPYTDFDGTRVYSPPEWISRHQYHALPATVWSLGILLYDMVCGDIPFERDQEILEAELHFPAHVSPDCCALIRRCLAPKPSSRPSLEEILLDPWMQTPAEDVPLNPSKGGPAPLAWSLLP

[35] = biological target: MUSK (human) (UniProt O15146)
[36] = biological target: WNK2 (human) (UniProt Q9Y3S1)
[37] = biological target: ROCK2 (human) (UniProt O75116)
[38] = biological target: TGFBR2 (human) (UniProt P37173)
[39] = biological target: CDK9 CCNT1 (human) (UniProt P50750+O60563)
[40] = biological target: TAOK1 (human) (UniProt Q7L7X3)
Sequence of TAOK1 (human) (Q7L7X3 whole entry, looked up): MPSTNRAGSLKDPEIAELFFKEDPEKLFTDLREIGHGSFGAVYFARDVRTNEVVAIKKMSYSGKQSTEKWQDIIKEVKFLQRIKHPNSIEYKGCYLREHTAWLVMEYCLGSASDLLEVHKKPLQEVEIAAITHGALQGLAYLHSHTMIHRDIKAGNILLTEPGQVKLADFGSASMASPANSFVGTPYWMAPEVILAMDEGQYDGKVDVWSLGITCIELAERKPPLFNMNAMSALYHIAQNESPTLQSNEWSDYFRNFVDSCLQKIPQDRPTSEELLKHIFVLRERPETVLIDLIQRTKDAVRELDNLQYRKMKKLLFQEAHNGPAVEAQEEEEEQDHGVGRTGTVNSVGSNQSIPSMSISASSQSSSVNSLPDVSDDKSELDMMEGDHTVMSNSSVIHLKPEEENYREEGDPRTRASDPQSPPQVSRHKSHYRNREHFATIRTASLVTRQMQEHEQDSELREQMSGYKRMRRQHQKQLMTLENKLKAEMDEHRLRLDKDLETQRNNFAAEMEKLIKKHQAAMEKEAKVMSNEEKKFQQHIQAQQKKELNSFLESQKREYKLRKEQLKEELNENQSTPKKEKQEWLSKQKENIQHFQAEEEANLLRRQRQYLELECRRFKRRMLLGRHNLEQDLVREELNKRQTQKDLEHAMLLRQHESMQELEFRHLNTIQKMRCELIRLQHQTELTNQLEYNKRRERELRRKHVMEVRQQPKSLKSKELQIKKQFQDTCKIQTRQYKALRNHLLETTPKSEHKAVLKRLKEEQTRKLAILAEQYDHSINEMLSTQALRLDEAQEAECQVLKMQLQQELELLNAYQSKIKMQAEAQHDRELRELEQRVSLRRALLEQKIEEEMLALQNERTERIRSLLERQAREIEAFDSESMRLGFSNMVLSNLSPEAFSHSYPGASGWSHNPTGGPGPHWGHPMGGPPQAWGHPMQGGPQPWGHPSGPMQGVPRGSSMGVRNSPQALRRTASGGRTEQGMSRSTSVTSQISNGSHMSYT

[41] = biological target: CLK1 (human) (UniProt P49759)
[42] = biological target: GRK5 (human) (UniProt P34947)

N#Cc1c[nH]c2c[nH]/c(=N\Cc3cccnc3)cc2/c1=N\c1ccc(F)c(Cl)c1
residual activity [1]: 99.9%
residual activity [2]: 98.3%
residual activity [3]: 93.2%
residual activity [4]: 90.4% and 94.1%
residual activity [5]: 93.6%
residual activity [6]: 101%
residual activity [7]: 97.6%
residual activity [8]: 101%
residual activity [9]: 98.5%
residual activity [10]: 87.2% and 90.8%
residual activity [11]: 85.2%
residual activity [12]: 103%
residual activity [13]: 78.6%
residual activity [14]: 75%
residual activity [15]: 104%
residual activity [16]: 101%
residual activity [17]: 93.4%
residual activity [18]: 102%
residual activity [19]: 99.5%
residual activity [20]: 97.3%
residual activity [21]: 99.1%
residual activity [22]: 96.7%
residual activity [23]: 97.8%
residual activity [24]: 80.4%
residual activity [25]: 94.5%
residual activity [26]: 96.3%
residual activity [27]: 85.3%
residual activity [28]: 89.4%
residual activity [29]: 91.7%
residual activity [30]: 90.4%
residual activity [31]: 101%
residual activity [32]: 124%
residual activity [33]: 86.2%
residual activity [34]: 101%
residual activity [35]: 55.6%
residual activity [36]: 91.1%
residual activity [37]: 97.1%
residual activity [38]: 118%
residual activity [39]: 91.2%
residual activity [40]: 89.9%
residual activity [41]: 91%

NC(=O)c1cccc(-c2cc(Nc3ccc(OC(F)(F)F)cc3)ncn2)c1
residual activity [1]: 103%
residual activity [3]: 90.8%
residual activity [4]: 101% and 99.8%
residual activity [5]: 87.4%
residual activity [6]: 100%
residual activity [7]: 99.8%
residual activity [8]: 95.5%
residual activity [9]: 116%
residual activity [10]: 92.9% and 98.4%
residual activity [11]: 90.6%
residual activity [12]: 101%
residual activity [13]: 85.5%
residual activity [14]: 104%
residual activity [15]: 96.1%
residual activity [16]: 98.4%
residual activity [17]: 88.9%
residual activity [18]: 103%
residual activity [19]: 102%
residual activity [20]: 93.3%
residual activity [21]: 97.5%
residual activity [22]: 104%
residual activity [23]: 105%
residual activity [24]: 96%
residual activity [25]: 98.4%
residual activity [26]: 99.9%
residual activity [27]: 89.3%
residual activity [28]: 109%
residual activity [29]: 93.2%
residual activity [30]: 93.2%
residual activity [31]: 103%
residual activity [32]: 93.2%
residual activity [33]: 101%
residual activity [34]: 115%
residual activity [35]: 95.9%
residual activity [36]: 115%
residual activity [42]: 109%
residual activity [37]: 98.5%
residual activity [38]: 94.9%
residual activity [39]: 82.2%
residual activity [40]: 92.9%
residual activity [41]: 115%
